Results as given in patent publication US10370378B2, “Treatment of sleep disorders” (Evotec International GmbH, priority 2007, dated 2019).
“Also recorded” adds a separate entry of the source. Marks after values point to notes of the source that are not given here.

Legend:
α1β2γ2 GABAA receptors = biological target: T1, α1β2γ2 GABAA receptors (Rattus norvegicus, UniProt P18508+P62813); assay: Stimulation of currents elicited by GABA (EC3-5), two-electrode voltage clamp, receptors expressed in Xenopus oocytes; type: cell-based
T1 construct: expressed in transfected cells; host or cells: Xenopus laevis oocytes, cRNA microinjection
T1 sequence (P62813 28-455): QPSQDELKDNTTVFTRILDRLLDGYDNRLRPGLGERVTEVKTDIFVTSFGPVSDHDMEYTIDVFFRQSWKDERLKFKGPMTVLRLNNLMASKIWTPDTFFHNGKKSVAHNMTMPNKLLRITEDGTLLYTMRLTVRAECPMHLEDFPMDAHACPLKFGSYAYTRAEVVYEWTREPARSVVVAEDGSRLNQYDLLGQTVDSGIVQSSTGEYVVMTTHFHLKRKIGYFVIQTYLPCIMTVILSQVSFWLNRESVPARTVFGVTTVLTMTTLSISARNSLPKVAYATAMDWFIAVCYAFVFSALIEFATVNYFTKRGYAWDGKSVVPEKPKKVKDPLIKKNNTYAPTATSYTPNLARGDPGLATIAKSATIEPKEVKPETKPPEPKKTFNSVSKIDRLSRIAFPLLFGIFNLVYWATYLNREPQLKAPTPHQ
T1 sequence (P63138 25-474 partner limits assumed): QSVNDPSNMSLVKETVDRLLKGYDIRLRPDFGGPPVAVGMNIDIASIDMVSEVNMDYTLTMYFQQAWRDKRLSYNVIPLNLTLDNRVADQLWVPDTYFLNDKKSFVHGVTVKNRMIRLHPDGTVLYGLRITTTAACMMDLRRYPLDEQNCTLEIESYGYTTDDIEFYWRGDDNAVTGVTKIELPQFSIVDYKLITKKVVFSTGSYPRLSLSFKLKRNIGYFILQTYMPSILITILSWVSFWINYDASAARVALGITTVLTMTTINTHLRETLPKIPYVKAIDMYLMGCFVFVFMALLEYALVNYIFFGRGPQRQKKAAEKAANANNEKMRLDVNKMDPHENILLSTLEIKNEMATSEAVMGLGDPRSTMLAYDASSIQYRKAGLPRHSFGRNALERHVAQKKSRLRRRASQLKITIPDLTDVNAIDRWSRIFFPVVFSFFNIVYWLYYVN
T1 sequence (P18508 39-466): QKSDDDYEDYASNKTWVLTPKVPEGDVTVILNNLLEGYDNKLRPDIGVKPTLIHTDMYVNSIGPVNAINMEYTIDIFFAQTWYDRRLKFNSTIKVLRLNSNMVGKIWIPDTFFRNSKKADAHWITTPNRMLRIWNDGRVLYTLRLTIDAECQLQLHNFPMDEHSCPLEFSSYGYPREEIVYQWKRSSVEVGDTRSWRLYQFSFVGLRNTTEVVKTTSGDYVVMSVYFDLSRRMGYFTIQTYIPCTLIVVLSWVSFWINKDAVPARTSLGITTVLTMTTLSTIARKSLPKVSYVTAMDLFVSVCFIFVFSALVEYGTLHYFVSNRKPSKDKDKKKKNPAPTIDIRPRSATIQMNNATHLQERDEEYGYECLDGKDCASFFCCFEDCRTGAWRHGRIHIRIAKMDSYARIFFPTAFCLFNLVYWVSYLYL
Source text: 7-Chloro-3-(5-dimethylaminomethyl-[1,2,4]oxadiazol-3-yl)-5-methyl-4,5-dihydro-imidazol[1,5,-a][1,4]benzodiazepine-6-one was used to test the effects of the compound of formula (II): […]
Similar procedures were chosen as for the investigation of other GABAA receptor subunit specific substances (e.g., Baur et al., 2005; Mol. Pharmacol. 68, 787-792).
Lobes of the ovary containing the follicles were obtained by surgical procedures from female Xenopus laevis. Follicles were singled out using a platinum loop. Fifty nL of cRNA solution at a ratio of αx:β2:γ2 of 1:1:5 (3.3-10 nM αx (x=1, 2, 3, 5); 3.3-10 nM β2; 16.7-50 nM γ2) (Boileau et al., 2002; Neuropharmacology 43, 695-700) were microinjected into Xenopus follicles. Several hours after microinjection the follicles were freed of follicular layers and adhering connective tissue by a collagenase/hypertonic shock procedure (Sigel, 1987; J. Physiol. (Land) 386, 73-90). Oocytes were kept at constant 18° C. until measurement (1-4 days) in a modified Barth solution (88 mM NaCl, 1 mM KCl, 2.4 mM NaHCO3, 10 mM Hepes-NaOH (pH 7.5), 0.82 mM MgSO4×7H2O, 0.34 mM Ca(NO3)2×4H2O, 0.41 mM CaCl2×2H2O, 100 U Penicillin/mL, 100 μg Streptomycin/mL, sterile filtered).
Currents were measured using a home-built amplifier in combination with a xy-recorder or were digitized using a MacLab/200 (AD Instruments) and stored on a computer. Xenopus oocytes were voltage clamped using the two-electrode voltage clamp technique (electrode resistance about 0.8 MΩ) at −80 mV. The medium contained 90 mM NaCl, 1 mM KCl, 1 mM MgCl2, 1 mM CaCl2, 10 mM Na-Hepes (pH 7.4) and 0.5% DMSO.
GABA was applied for 20-50 seconds without or in combination with other drugs and a washout period of 4 minutes was allowed to ensure full recovery from desensitization, which was experimentally determined. The perfusion solution (6 mL/min) was applied through a glass capillary with an inner diameter of 1.35 mm, the mouth of which was placed about 0.4 mm from the surface of the oocyte. The rate of solution change under our conditions has been estimated 70% within less than 0.5 s (Sigel et al., 1990; Neuron 5, 703-711). The entire perfusion system and the assay chamber were cleaned between drug applications by washing with DMSO.
Data is given as mean±SD, except in the figures where data is shown for clarity as mean±SEM. Current stimulation was calculated as follows: stimulation (%)=((I(GABA+modulator)−I(GABA))/I(GABA))×100%, where I is the current amplitude. Where indicated, the stimulation was standardized to the stimulation by 1 μM diazepam (100%). To obtain FIGS. 1-4, values for current stimulation obtained at a given concentration of modulator at a given subunit combination were averaged. The data points were fitted with the equation stimulation=efficacy/(1+(potency/concentration of modulator)). The values given in the Tables (Summary) are obtained by fitting individual curves and subsequently averaging efficacy and potency. […]
GABA was then applied in combination with various concentrations of the compound of formula (II) between 0.3 nM and 3,000 nM to produce a cumulative concentration response curve. […] In each batch of oocytes the stimulation by 1 μM diazepam was determined in five oocytes, extent of stimulation averaged and defined as 100%. Where indicated, stimulation by the compound of formula (II) in each batch of oocytes was expressed as a percentage of this value in the corresponding batch. […]

[1] = tested on: healthy volunteers subjected to road traffic noise; assay: Example 1: placebo controlled cross-over study, road noise model; type: in vivo, human
Method: A placebo controlled, randomized, double-blind, cross-over study of the effects of the compound of formula (II) was conducted using a road noise model using 12 healthy volunteers. Specifically, the volunteers were subjected to road traffic noise to imitate the effects of insomnia, and the medication was orally administered 5 minutes before the 11 pm bed time in 1.0 mg, 1.5 mg, 2 mg and 2.5 mg doses in the form of a hard gelatine capsule containing the powdered compound of formula (II) in free base form. Measurements were then taken at 8, 10 and 12 hours after dosing.

[2] = 1.5, 2.0 & 2.5 mg oral, objective
[3] = all 4 doses (1.0, 1.5, 2, 2.5 mg)
[4] = all 4 doses, objective residual effects

## CN(C)Cc1nc(-c2ncn3c2CN(C)C(=O)c2c(Cl)cccc2-3)no1 [compound of formula (II), 7-chloro-3-(5-dimethylaminomethyl-[1,2,4]oxadiazol-3-yl)-5-methyl-4,5-dihydro-imidazo[1,5-a][1,4]benzodiazepine-6-one]
α1β2γ2 GABAA receptors; GABAA receptor benzodiazepine site
  Intrinsic activity / type of allosteric modulation: partial agonist; also recorded: partial positive allosteric modulator
α1β2γ2 GABAA receptors; concentrations <100 nM
  Receptor subtype preference in comparison to α5β2γ2, α3β2γ2 and α2β2γ2: preference for α1β2γ2 GABAA receptors
[1]; 2.5 mg
  Subjective assessment (LARS): Coordination: No impairment
  Subjective assessment (LARS): Mood: No impairment
  Subjective assessment (LARS): Sedation: No impairment
[1]; [2]
  WASO, 2nd half (hrs 5-8): Significantly reduced
  WASO, full night (hrs 0-8): Significantly reduced
[1]; 2.0 & 2.5 mg oral, objective
  Sleep Efficiency Index: Significantly improved
  TST: Significantly improved
[1]; 8 to 12 hours after dose, data corrected for multiple comparisons
  Performance on any of the cognitive or psychomotor tests: no impairment
[1]; all 4 doses
  Choice Reaction Time - Motor Component: No effect (all 4 doses)
  Critical Flicker Fusion Test: No effect (all 4 doses)
  Word Recall - delayed (WRd): No effect (all 4 doses)
[1]; [3]
  SWS (% and duration): Significantly increased
  Stage IV Sleep (% and duration): Significantly increased
[1]; all 4 doses, model considered nondiscriminant for sleep onset
  Leeds Sleep Evaluation Questionnaire: Getting to sleep: (No effect to all 4 doses)*
[1]; [4]
  Rapid Visual Information Processing: No effect (all 4 doses)
  Sustained Attention to Response (SART): No effect (all 4 doses)
[1]; all 4 doses, subjective
  Leeds Sleep Evaluation Questionnaire: Early morning behaviour (clumsiness & tiredness): No effect (all 4 doses)
  Leeds Sleep Evaluation Questionnaire: Ease of awakening: No effect (all 4 doses)
[1]; at 8 or 12 h, all 4 doses
  Sternberg Memory Task (STM): No effect at 8 or 12 h (all 4
[1]; at 10 or 12 h, all 4 doses
  Continuous Tracking Task - reaction time: No effect at 10 or 12 h (all
[1]; at 8 h, all 4 doses
  Continuous Tracking Task - deviation: No effect at 8 h (all 4
